According to patent US5846562A, “Oral composition of fumagillol derivative” (Takeda Chemical Industries, Ltd., priority 1996, dated 1998):
Like-named read-outs stand apart in the source and are kept apart here.

Key:
Colon 26 cancer cells [1] = test: Colon 26 tumor growth inhibition in tumor-bearing mice, oral; type: in vivo, female BALB/c mice; conditions: solution in Miglyol 812
Experimental: (§1) Tumor-bearing mice were provided by transplanting 1×10^5 Colon 26 cancer cells/animal in the flank of female 10-week-old BALB/c mice (Charles River Japan). […] On day 21, the tumor mass at the transplantation site was excised and weighed, and the tumor weight ratio relative to the untreated control group (T/C) was calculated. In addition, the tumor colonies metastasized to the lungs were counted and the median value in each group was compared with that in the untreated control group (T/C).

Colon 26 cancer cells [2] = test: Lung metastasis (tumor colonies) in Colon 26 tumor-bearing mice, oral; type: in vivo, female BALB/c mice; conditions: for T/C (median number of tumor colonies metastasized to the lungs vs untreated control): oral once daily day 7 to day 20, sample solution in Miglyol 812, day 21
Experimental: as §1

[3] = Plasma concentration of metabolite after oral compound A with or without famotidine pretreatment; type: in vivo, SD rats; conditions: famotidine-treated group, intragastric pH elevated, vs no famotidine
Experimental: Famotidine (Sigma) was administered subcutaneously to SD rats fasted overnight (dose; 10 mg/kg). […] Blood was serially drawn from the caudal vein to determine the plasma concentration of metabolites.

[4] = rat, in vivo, po, 100 mg/kg
Excerpt: Blood was collected from the caudal vein periodicaly to determine the plasma concentration of metabolite.

CO[C@@H]1[C@H](OC(=O)NC(=O)CCl)CC[C@]2(CO2)[C@H]1[C@@]1(C)O[C@@H]1CC=C(C)C [Compound A, 6-O-(N-chloroacetylcarbamoyl)fumagillol]
effect on tumor growth inhibition (Colon 26 cancer cells [1]): potent and dose-dependent effect | T/C (median number of tumor colonies metastasized to the lungs vs untreated control) (Colon 26 cancer cells [2]; 25 mg/kg): 71% | T/C (median number of tumor colonies metastasized to the lungs vs untreated control) (Colon 26 cancer cells [2]; 50 mg/kg): 52% | effect on tumor metastasis inhibition (Colon 26 cancer cells [2]; oral, solution in Miglyol 812): potent and dose-dependent effect | absorption [3]: marked increase in absorption | Plasma concentration of metabolite ([4]; 5 min): 15.7 ± 1.6 ng/mL | Plasma concentration of metabolite ([4]; 10 min): 17.3 ± 4.9 ng/mL | Plasma concentration of metabolite ([4]; 30 min): 5.8 ± 3.6 ng/mL | Plasma concentration of metabolite ([4]; 60 min): 0 ng/mL
